Series [1] has as its system Oncorhynchus mykiss. The settings on record: chronic/long-term; duration: 21 days.
Series [2] concerns Rattus norvegicus.
The test system of series [3] is Canidae. The settings on record: chronic; duration: 1 years; oral; Dog Other; clinical signs.
In series [4] the test system is Apis mellifera. The settings on record: acute, mortality.
For series [5], the system named is Daphnia magna. The following applies: chronic/long-term; duration: 21 days; reproduction.
The subject of series [6] is Colinus virginianus.
In series [7] the test system is Tagia sp. The settings on record: acute; mortality.
For series [8], the system named is Lepomis macrochirus. The settings on record: acute; duration: 96 hours; mortality.
Series [9] deals with Aphidius rhopalosiphi. Description: LR50; higher = less toxic. The settings on record: not reported; duration: 14 days; mortality.
Series [10] relates to Typhlodromus pyri. Description: LR50; higher = less toxic. The settings on record: acute; duration: 14 days; mortality.

In brackets after ≈: the same amount, converted by molar mass.

Consider `C#CCOC(=O)[C@@H](C)Oc1ccc(Oc2ncc(Cl)cc2F)cc1` [Clodinafop-propargyl], for which the NOEC turned out to be 0.1 mg/L in series [1], 0.23 mg/L in series [5] and 43 mg/kg-day in [6] (reproduction developmental). In addition, the LD50 in [2] (acute, oral, M, mortality) is 1390 mg/kg; in series [4] (dermal), 40.9 µg/piece; in series [4] (duration: 48 hours, oral, unspecified), more than 93.7 µg/piece; in [6] (acute, oral, mortality), 1360 mg/kg. Moreover, the no observed adverse effect level (NOAEL) (in general, the highest dose or exposure tested at which no adverse effect was seen) in series [2] (chronic, duration: 2 years, oral, clinical signs) was determined as 0.32 mg/kg-day; in series [2] (developmental, development), 5 mg/kg-day; in series [2] (reproduction developmental, reproduction) it was 4.63 mg/kg-day; in series [3] it was 3.4 mg/kg-day. Further, the LC50 in series [6] (acute, oral, diet, mortality) was more than 980 mg/kg-day; in [7], 197 mg/kg; in series [8], 0.21 µg/mL (≈ 0.6 µM). Besides, the values for the LR50 in series [9] and in series [10] were 3.1 g/ha and 20 g/ha, respectively.

Source of the values: EPA's ToxValDB 9.5 (doi:10.2903/j.efsa.2005.34ar).
